Test results reported in patent US20230348583A1, “TGFbeta1-BINDING IMMUNOGLOBULINS AND USE THEREOF” (SCHOLAR ROCK, INC., priority 2016, published 2023).

Assays:
rats = details: Frazier et al. 2007; cited from earlier work
female F344/NHsd rats = assay: Rat toxicity study; details: for Aortic root: Hemorrhage, Minimal / Aortic root: Infiltrate, mixed cell, Minimal / Atrium: Hemorrhage, Minimal / Atrium: Hyperplasia, endothelium, Minimal / Atrium: Infiltrate, mixed cell, Minimal / Atrium: Infiltrate, mixed cell, Slight / Coronary artery: Necrosis with inflammation, Slight / Heart valves: Valvulopathy, Minimal / Heart valves: Valvulopathy, Moderate / Heart valves: Valvulopathy, Slight / Myocardium: Degeneration/necrosis, Minimal / Myocardium: Degeneration/necrosis, Slight / Myocardium: Hemorrhage, Slight / Myocardium: Infiltrate, mixed cell, Slight: animals affected (n=5)
Procedure: Animal body weight was determined at days 1, 3, and 7 of the dosing phase. Animals were sacrificed at day 8 and necropsies performed.

rats and dogs = details: Stauber et al. 2014; cited from earlier work
human cancer patients = details: in vivo; cited from earlier work
cynomolgus macaques = details: cynomolgus monkey, in vivo; cited from earlier work

For `O=C(NC1CCOCC1)c1ccc(-c2cc(-c3c[nH]nc3-c3ccccn3)ccn2)cc1` [GW788388], the “Bone toxicity in rats” value (rats) is given as “induced physeal dysplasia”.

For `c1ccc(-c2nn3c(c2-c2ccnc4cc(OCCN5CCOCC5)ccc24)CCC3)nc1` [LY2109761], the “Body weight during the dosing phase” value (female F344/NHsd rats; 200 mg/kg or 300 mg/kg) was “decreased body weight”, the Animals found dead (female F344/NHsd rats; 200 mg/kg oral gavage once daily, n=5, day 7) was “Two” and the Mortality (female F344/NHsd rats; 300 mg/kg oral gavage once daily, all animals (n=5), days 3, 6, or 7) was “sacrificed in a moribund condition or found dead”. For the same compound, the “Heart, Absolute Weight” value (female F344/NHsd rats; LY2109761 200 mg/kg/day) was 112 percentage control mean value, the “Heart, Body Weight Ratio” value (female F344/NHsd rats; LY2109761 200 mg/kg/day) was 132 percentage control mean value and the “Heart, Brain Weight Ratio” value (female F344/NHsd rats; LY2109761 200 mg/kg/day) was 113 percentage control mean value. The “Aortic root: Hemorrhage, Minimal” value (female F344/NHsd rats; LY2109761 200 mg/kg/day) was 1, the “Aortic root: Infiltrate, mixed cell, Minimal” value (female F344/NHsd rats; LY2109761 200 mg/kg/day) was 1 and the “Atrium: Hemorrhage, Minimal” value (female F344/NHsd rats; LY2109761 200 mg/kg/day) was 1. The “Atrium: Hyperplasia, endothelium, Minimal” value (female F344/NHsd rats; LY2109761 200 mg/kg/day) was 1, the “Atrium: Infiltrate, mixed cell, Minimal” value (female F344/NHsd rats; LY2109761 200 mg/kg/day) was 2 and the “Atrium: Infiltrate, mixed cell, Slight” value (female F344/NHsd rats; LY2109761 200 mg/kg/day) was 0. For the same compound, the “Coronary artery: Necrosis with inflammation, Slight” value (female F344/NHsd rats; LY2109761 200 mg/kg/day) was 0, the “Heart valves: Valvulopathy, Minimal” value (female F344/NHsd rats; LY2109761 200 mg/kg/day) was 1 and the “Heart valves: Valvulopathy, Moderate” value (female F344/NHsd rats; LY2109761 200 mg/kg/day) was 1. The “Heart valves: Valvulopathy, Slight” value (female F344/NHsd rats; LY2109761 200 mg/kg/day) was 3, the “Myocardium: Degeneration/necrosis, Minimal” value (female F344/NHsd rats; LY2109761 200 mg/kg/day) was 0 and the “Myocardium: Degeneration/necrosis, Slight” value (female F344/NHsd rats; LY2109761 200 mg/kg/day) was 1. The “Myocardium: Hemorrhage, Slight” value (female F344/NHsd rats; LY2109761 200 mg/kg/day) was 1, the “Myocardium: Infiltrate, mixed cell, Slight” value (female F344/NHsd rats; LY2109761 200 mg/kg/day) was 0 and the “Aortic root: Hemorrhage, Minimal” value (female F344/NHsd rats; LY2109761 300 mg/kg/day) was 0. The “Aortic root: Infiltrate, mixed cell, Minimal” value (female F344/NHsd rats; LY2109761 300 mg/kg/day) was 0, the “Atrium: Hemorrhage, Minimal” value (female F344/NHsd rats; LY2109761 300 mg/kg/day) was 2 and the “Atrium: Hyperplasia, endothelium, Minimal” value (female F344/NHsd rats; LY2109761 300 mg/kg/day) was 3. The “Atrium: Infiltrate, mixed cell, Minimal” value (female F344/NHsd rats; LY2109761 300 mg/kg/day) was 3, the “Atrium: Infiltrate, mixed cell, Slight” value (female F344/NHsd rats; LY2109761 300 mg/kg/day) was 1 and the “Coronary artery: Necrosis with inflammation, Slight” value (female F344/NHsd rats; LY2109761 300 mg/kg/day) was 1. For the same compound, the “Heart valves: Valvulopathy, Minimal” value (female F344/NHsd rats; LY2109761 300 mg/kg/day) was 2, the “Heart valves: Valvulopathy, Moderate” value (female F344/NHsd rats; LY2109761 300 mg/kg/day) was 0 and the “Heart valves: Valvulopathy, Slight” value (female F344/NHsd rats; LY2109761 300 mg/kg/day) was 3. For the same compound, the “Myocardium: Degeneration/necrosis, Minimal” value (female F344/NHsd rats; LY2109761 300 mg/kg/day) was 1, the “Myocardium: Degeneration/necrosis, Slight” value (female F344/NHsd rats; LY2109761 300 mg/kg/day) was 1 and the “Myocardium: Hemorrhage, Slight” value (female F344/NHsd rats; LY2109761 300 mg/kg/day) was 0. For the same compound, the “Myocardium: Infiltrate, mixed cell, Slight” value (female F344/NHsd rats; LY2109761 300 mg/kg/day) was 1, the “Animals with abnormally-shaped sternum” value (female F344/NHsd rats; each of 200 mg/kg and 300 mg/kg groups, n=5) was “four” and the “Clear fluid in the thoracic cavity” value (female F344/NHsd rats; one animal at 300 mg/kg found dead on Day 3, with enlarged thymus (edema)) was 2.5 mL. For the same compound, the Heart weight (female F344/NHsd rats; ≥200 mg/kg) was “Increased heart weights” and the “Microscopic heart valve findings” value (female F344/NHsd rats; ≥200 mg/kg) was “exhibited heart valve findings (i.e., valvulopathy)”.

For `Cc1cccc(-c2nn3c(c2-c2ccnc4ccc(C(N)=O)cc24)CCC3)n1` [LY2157299], the “Organ toxicities on chronic (≥3 months) administration” value (rats and dogs) is given as “caused multiple organ toxicities”.

In the case of “Fresolimumab: a pan TGFβ antibody capable of neutralizing all human isoforms of TGFβ”, the “Most notable adverse reaction in clinical trials” value (human cancer patients) is listed as “induction of cutaneous keratoacanthomas and/or squamous cell carcinomas” and the “Toxicity after multiple administrations” value (cynomolgus macaques) is listed as “induce an epithelial hyperplasia of the gingiva, bladder, and of the nasal turbinate epithelium”.
